Activity calls are given as the source filed them. The calls are words filed in the database; no cut-off is given here.
Columns and labels:
[1] = Toxicity in 615 mouse implanted with mouse MFC cells assessed as histological change in kidney at 10 to 50 mg/kg, IG treated daily for 14 days by H and E staining based analysis; type: organism-based; conditions: in vivo, po, 336 h, dose 10-50 mg/kg, time 14 day
[2] = biological target: T1, Lysine-specific histone demethylase 1A (Homo sapiens, UniProt O60341); assay: Induction of thermal stabilization of LSD1 in human MKN-45 cells incubated for 5 days followed by heat exposure at 40 to 55 degreeC by CETSA; type: cell-based; conditions: time 5.0 day
[3] = Toxicity in 615 mouse implanted with mouse MFC cells assessed as histological change in lung at 10 to 50 mg/kg, IG treated daily for 14 days by H and E staining based analysis; type: organism-based; conditions: in vivo, po, 336 h, dose 10-50 mg/kg, time 14 day
[4] = biological target: T1, Lysine-specific histone demethylase 1A; assay: Inhibition of LSD1 in human MKN-45 cells assessed as reduction in PD-L1 level incubated for 5 days by Western blot analysis; type: cell-based; conditions: dose 1-4 µM, time 5.0 day
MFC [5] = assay: Antitumor activity against mouse MFC cells implanted in 615 mouse assessed as decrease in tumor weight at 10 to 50 mg/kg, IG treated daily for 14 days; type: functional, organism-based; conditions: dose 10-50 mg/kg, time 14.0 day
MFC [6] = assay: In vivo induction of T-cell infiltration in mouse MFC cells implanted in 615 mouse assessed as increase in CD3+ CD8+ T cells at 10 mg/kg, IG treated daily for 14 days by flow cytometry (reference value: 2.79 %); type: functional; conditions: time 14 day
MFC [7] = assay: Antitumor activity against mouse MFC cells implanted in 615 mouse assessed as decrease Ki67 expression at 10 to 50 mg/kg, IG treated daily for 14 days by IHC analysis; type: functional, organism-based; conditions: dose 10-50 mg/kg, time 14.0 day
MFC [8] = assay: Induction of T-cell killing response in mouse MFC cells assessed as increase in IFN-gamma secretion at 1 to 4 uM pretreated for 5 days followed by co-culturing with human PBMC-derived T cells for 4 days by ELISA; type: functional, cell-based; conditions: dose 1-4 µM, time 5.0 day
[9] = biological target: Lysine-specific histone demethylase 1A (Mus musculus) (UniProt Q6ZQ88); assay: Inhibition of LSD1 in mouse MFC cells assessed as accumulation of membrane PD-L1 at 4 uM incubated for 5 days (reference value: 63.0 %); type: cell-based; set-up: scale not given: the % may be the effect or the level left; conditions: time 5.0 day
[10] = biological target: Programmed cell death protein 1/Programmed cell death 1 ligand 1 (Homo sapiens) (UniProt Q15116+Q9NZQ7); assay: Inhibition of PD-1/PD-L1 interaction in human MKN-45 cells pretreated for 5 days followed by PD-1-Fc addition by DAPI staining based confocal microscopy; type: cell-based; conditions: dose 1-4 µM, time 5.0 day
MFC [11] = assay: Antitumor activity against mouse MFC cells implanted in 615 mouse assessed as decrease PD-L1 expression treated intragastrically daily for 14 days by Western blot analysis; type: functional, cell-based; conditions: dose 10-50 mg/kg, route ig, time 14.0 day
MKN-45 [12] = assay: Induction of T-cell killing response in human MKN-45 cells assessed as increase in IL-2 secretion at 1 to 4 uM pretreated for 5 days followed by co-culturing with human PBMC-derived T cells for 4 days by ELISA; type: functional, cell-based; conditions: dose 1-4 µM, time 5.0 day
MKN-45 [13] = assay: Effect on PD-L1 expression in human MKN-45 cells harboring LSD1-KO at 1 to 4 uM incubated for 5 days by Western blot analysis; type: functional, cell-based; conditions: dose 1-4 µM, time 5.0 day
[14] = Toxicity in 615 mouse implanted with mouse MFC cells assessed as body weight change at 10 to 50 mg/kg, IG treated daily for 14 days; type: organism-based; conditions: in vivo, po, 336 h, dose 10-50 mg/kg, time 14 day
MKN-45 [15] = assay: Induction of T-cell killing response in human MKN-45 cells harboring LSD1-KO assessed as decrease in cell viability at 1 to 4 uM pretreated for 5 days followed by co-culturing with human PBMC-derived T cells for 4 days by CCK8 assay; type: functional, cell-based; conditions: dose 1-4 µM, time 5.0 day
[16] = biological target: T1, Lysine-specific histone demethylase 1A; assay: Inhibition of LSD1 in human MKN-45 cells assessed as decrease in demethylation of H3K4me2 incubated for 5 days by Western blot analysis; type: cell-based; conditions: dose 1-4 µM, time 5.0 day
MKN-45 [17] = assay: Induction of T-cell killing response in human MKN-45 cells assessed as decrease in cell viability pretreated for 5 days followed by co-culturing with human PBMC-derived T cells for 4 days by CCK8 assay; type: functional, cell-based; conditions: dose 1-4 µM, time 5.0 day
MFC [18] = assay: Induction of T-cell killing response in mouse MFC cells assessed as decrease in cell viability at 1 to 4 uM pretreated for 5 days followed by co-culturing with human PBMC-derived T cells for 4 days by CCK8 assay; type: functional, cell-based; conditions: dose 1-4 µM, time 5.0 day
MFC [19] = assay: In vivo induction of T-cell infiltration in mouse MFC cells implanted in 615 mouse assessed as increase in CD3+ CD8+ T cells at 25 mg/kg, IG treated daily for 14 days by flow cytometry (reference value: 2.79 %); type: functional; conditions: time 14 day
[20] = biological target: Lysine-specific histone demethylase 1A (Mus musculus) (UniProt Q6ZQ88); assay: Inhibition of LSD1 in mouse MFC cells assessed as reduction in PD-L1 level incubated for 5 days by Western blot analysis; type: cell-based; conditions: time 5.0 day
MKN-45 [21] = assay: Inhibition of cell migration in human MKN-45 cells at 1 to 4 uM incubated up to 48 hrs by wound healing assay; type: functional, cell-based; conditions: dose 1-4 µM
MKN-45 [22] = assay: Induction of T-cell killing response in human MKN-45 cells assessed as increase in IFN-gamma secretion at 1 to 4 uM pretreated for 5 days followed by co-culturing with human PBMC-derived T cells for 4 days by ELISA; type: functional, cell-based; conditions: dose 1-4 µM, time 5.0 day
MKN-45 [23] = assay: Effect on H3K4me3 demethylation in human MKN-45 cells at 1 to 4 uM incubated for 5 days by Western blot analysis; type: functional, cell-based; conditions: dose 1-4 µM, time 5.0 day
MKN-45 [24] = assay: Effect on H3K4me1 demethylation in human MKN-45 cells harboring LSD1-KO at 1 to 4 uM incubated for 5 days by Western blot analysis; type: functional, cell-based; conditions: dose 1-4 µM, time 5.0 day
[25] = Toxicity in 615 mouse implanted with mouse MFC cells assessed as histological change in heart at 10 to 50 mg/kg, IG treated daily for 14 days by H and E staining based analysis; type: organism-based; conditions: in vivo, po, 336 h, dose 10-50 mg/kg, time 14 day
Mus musculus [26] = assay: In vivo induction of T-cell response in mouse MFC cells implanted in 615 mouse assessed as increase in IL-2 mRNA level at 10 to 50 mg/kg, IG treated daily for 14 days by PCR analysis; type: functional, organism-based; conditions: dose 10-50 mg/kg, time 14.0 day
[27] = Toxicity in 615 mouse implanted with mouse MFC cells assessed as histological change in spleen at 10 to 50 mg/kg, IG treated daily for 14 days by H and E staining based analysis; type: organism-based; conditions: in vivo, po, 336 h, dose 10-50 mg/kg, time 14 day
[28] = biological target: T1, Lysine-specific histone demethylase 1A; assay: Inhibition of LSD1 in human MKN-45 cells assessed as accumulation of membrane PD-L1 at 1 uM incubated for 5 days (reference value: 58.4 %); type: cell-based; set-up: scale not given: the % may be the effect or the level left; conditions: time 5.0 day
[29] = biological target: T1, Lysine-specific histone demethylase 1A; assay: Inhibition of recombinant LSD1 (unknown origin) extracted from Escherichia coli BL21 (DE3) using H3K4me2 peptide as substrate in presence of […] by Amplex Red assay
[30] = biological target: T1, Lysine-specific histone demethylase 1A; assay: Inhibition of LSD1 in human MKN-45 cells; type: cell-based
MFC [31] = assay: Antitumor activity against mouse MFC cells implanted in 615 mouse assessed as tumor growth suppression treated intragastrically daily for 14 days; type: functional, cell-based; conditions: dose 10-50 mg/kg, route ig, time 14.0 day
[32] = biological target: T1, Lysine-specific histone demethylase 1A; assay: Inhibition of LSD1 in human MKN-45 cells assessed as accumulation of membrane PD-L1 at 2 uM incubated for 5 days; type: cell-based; set-up: scale not given: the % may be the effect or the level left; conditions: time 5.0 day
[33] = Toxicity in 615 mouse implanted with mouse MFC cells assessed as histological change in liver at 10 to 50 mg/kg, IG treated daily for 14 days by H and E staining based analysis; type: organism-based; conditions: in vivo, po, 336 h, dose 10-50 mg/kg, time 14 day
MKN-45 [34] = assay: Inhibition of cell invasion in human MKN-45 cells at 1 to 4 uM incubated for 2 days by crystal violet staining based transwell assay; type: functional; conditions: dose 1-4 µM, time 2.0 day
Mus musculus [35] = assay: In vivo induction of T-cell response in mouse MFC cells implanted in 615 mouse assessed as increase in IFN-gamma mRNA level at 10 to 50 mg/kg, IG treated daily for 14 days by PCR analysis; type: functional, organism-based; conditions: dose 10-50 mg/kg, time 14.0 day
[36] = biological target: Lysine-specific histone demethylase 1A (Mus musculus) (UniProt Q6ZQ88); assay: Inhibition of LSD1 in mouse MFC cells assessed as accumulation of membrane PD-L1 at 1 uM incubated for 5 days (reference value: 63.0 %); type: cell-based; set-up: scale not given: the % may be the effect or the level left; conditions: time 5.0 day
[37] = biological target: Lysine-specific histone demethylase 1A (Mus musculus) (UniProt Q6ZQ88); assay: Inhibition of LSD1 in mouse MFC cells assessed as accumulation of membrane PD-L1 at 2 uM incubated for 5 days; type: cell-based; set-up: scale not given: the % may be the effect or the level left; conditions: time 5.0 day
MFC [38] = assay: In vivo induction of T-cell infiltration in mouse MFC cells implanted in 615 mouse assessed as increase in CD3+ CD8+ T cells at 50 mg/kg, IG treated daily for 14 days by flow cytometry (reference value: 2.79 %); type: functional; conditions: time 14 day
MKN-45 [39] = assay: Effect on H3K4me2 demethylation in human MKN-45 cells harboring LSD1-KO at 1 to 4 uM incubated for 5 days by Western blot analysis; type: functional, cell-based; conditions: dose 1-4 µM, time 5.0 day
[40] = biological target: T1, Lysine-specific histone demethylase 1A; assay: Inhibition of LSD1 in human MKN-45 cells assessed as decrease in demethylation of H3K4me1 incubated for 5 days by Western blot analysis; type: cell-based; conditions: dose 1-4 µM, time 5.0 day
[41] = biological target: T1, Lysine-specific histone demethylase 1A; assay: Inhibition of LSD1 in human MKN-45 cells assessed as accumulation of membrane PD-L1 at 4 uM incubated for 5 days (reference value: 58.4 %); type: cell-based; set-up: scale not given: the % may be the effect or the level left; conditions: time 5.0 day

## C=C1C(=O)OCC1C(O)c1cn(S(=O)(=O)c2ccc(N(C)C)c([N+](=O)[O-])c2)c2ccc(Cl)cc12 (stereo unspecified)
[1]
  Activity: Non-toxic
[2]
  Activity: Active
[3]
  Activity: Non-toxic
[4]
  inhibition: Dose-dependent-effect
MFC [5]
  Activity: Active
MFC [6]
  Activity: 4.92%
MFC [7]
  Activity: Active
MFC [8]
  Activity: Active
[9]
  Activity: 16%
[10]
  inhibition: Dose-dependent-effect
MFC [11]
  Activity: Dose-dependent-effect
MKN-45 [12]
  Activity: Active
MKN-45 [13]
  Activity: No effect
[14]
  Activity: Non-toxic
MKN-45 [15]
  Activity: inactive
[16]
  inhibition: Dose-dependent-effect
MKN-45 [17]
  Activity: Dose-dependent-effect
MFC [18]
  Activity: Active
MFC [19]
  Activity: 6.46%
[20]
  inhibition: Dose-dependent-effect
MKN-45 [21]
  inhibition: Active; Effect Was Better Than Ory-1001
MKN-45 [22]
  Activity: Active
MKN-45 [23]
  Activity: No effect
MKN-45 [24]
  Activity: No effect
[25]
  Activity: Non-toxic
Mus musculus [26]
  Activity: Active
[27]
  Activity: Non-toxic
[28]
  Activity: 49.5%
[29]
  IC50: 0.08 µM
[30]
  IC50: 0.0803 µM
MFC [31]
  Activity: Dose-dependent-effect
[32]
  Activity: 47.3%
[33]
  Activity: Non-toxic
MKN-45 [34]
  inhibition: Active; Effect Was Better Than Ory-1001
Mus musculus [35]
  Activity: Active
[36]
  Activity: 59.7%
[37]
  Activity: 45.6%
MFC [38]
  Activity: 16.6%
MKN-45 [39]
  Activity: No effect
[40]
  inhibition: Dose-dependent-effect
[41]
  Activity: 39.1%

Source: ChEMBL document CHEMBL6134893, “The Exploration of Indole-Based LSD1-Targeted Inhibitors for Enhanced Immune Response in Gastric Cancer via the PD-L1/PD-1 Axis” (J Med Chem, 2025)
